The experiment addresses T1, human olfactory receptor 1A2 (hOR1A2) (Homo sapiens, UniProt Q9Y585).
T1 construct: gene OR1A2; hOR1A2 expressed in E. coli, purified and embedded in MSP1E3D1 nanodiscs
T1 sequence (Q9Y585 1-309): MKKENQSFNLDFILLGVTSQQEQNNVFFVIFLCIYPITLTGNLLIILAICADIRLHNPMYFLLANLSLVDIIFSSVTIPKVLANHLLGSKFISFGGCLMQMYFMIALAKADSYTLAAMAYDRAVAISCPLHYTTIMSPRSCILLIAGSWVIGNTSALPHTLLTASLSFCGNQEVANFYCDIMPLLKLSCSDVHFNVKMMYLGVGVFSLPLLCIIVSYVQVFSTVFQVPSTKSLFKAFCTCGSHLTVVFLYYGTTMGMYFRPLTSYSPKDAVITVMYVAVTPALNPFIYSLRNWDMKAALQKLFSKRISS
Kind of experiment: nanodisc-functionalized floating-electrode CNT-FET biosensor, equilibrium (association) constant from Hill-Langmuir fit; also HEK-293 luciferase assay (Kd […]). In kind it is binding. The note with it: read-out: nanodisc-functionalized floating-electrode CNT-FET biosensor, equilibrium (assoc) (converted).

As for `CC(C)=CCCC(C)CCO` (stereo not shown) [citronellol], the Kd is 385 nM.

These data come from PMC6141559, “Human-like smelling of a rose scent using an olfactory receptor nanodisc-based bioelectronic nose” (Scientific Reports, 2018).
